Source: patent publication US11135310B2, “Gold porphyrin-PEG conjugates and methods of use” (The University of Hong Kong, priority 2015, dated 2021)

Columns and labels:
HeLa = assay: In vitro cytotoxicity, MTT assay; assay type: cell-based, human; conditions: for Toxicity toward cancer cells compared to that toward MIHA cells: IC50 of non-tumorigenic MIHA cells/IC50 of cancer cells; for Toxicity toward cancer cells compared to that toward NCM460 cells: IC50 of non-tumorigenic NCM460 cells/IC50 of cancer cells; for IC50: MTT assay, 72 h incubation, read-out: IC50
Excerpt: Therefore, it was anticipated that a not too high loading of DOX into nanostructures of 1 could be used for anti-cancer purposes in order to maintain low toxicity toward non-tumorigenic cells. Together with the higher encapsulation efficiency of DOX, NC1 was selected for investigations of the in vitro cytotoxicity. […] The in vitro cytotoxicity of NC1 was also compared to that of the mixture of nanostructures of 1 and DOX. […] The observed cytotoxicity was further evaluated by the combination index (CI), which can describe the effect of drug combination. […] It is shown that dose and effect are interchangeable via defined parameters. This general equation for the single drug effect has been extended to the multiple drug effect equation for n drugs. These equations provide the theoretical basis for the combination index (CI)-isobologram equation that allows quantitative determination of drug interactions, where CI<1, =1, and >1 indicate synergism, additive effect, and antagonism, respectively. [Chou, et al. Pharmacol. Rev. 2006, 58, 621] […] The synergistic effect can originate from different molecular targets and/or mechanism of action of DOX from that of gold(III) porphyrin complexes. […] These different modes of action would allow supra-additive effect on killing HeLa cells by the co-delivery.

NCI-H460 = assay: In vitro cytotoxicity, MTT assay; assay type: cell-based, human; conditions: for Toxicity toward cancer cells compared to that toward MIHA cells: IC50 of MIHA cells/IC50 of cancer cells; for Toxicity toward cancer cells compared to that toward NCM460 cells: IC50 of NCM460 cells/IC50 of cancer cells; for IC50: MTT assay, 72 h incubation
HCT116 = assay: In vitro cytotoxicity, MTT assay; assay type: cell-based, human; conditions: for IC50: HCT116, MTT assay, 72 h incubation; for Toxicity toward cancer cells compared to that toward MIHA cells / Toxicity toward cancer cells compared to that toward NCM460 cells: HCT-116; for Toxicity toward cancer cells compared to that toward MIHA cells: IC50 of MIHA cells/IC50 of cancer cells; for Toxicity toward cancer cells compared to that toward NCM460 cells: IC50 of NCM460 cells/IC50 of cancer cells
A2780 = assay: In vitro cytotoxicity, MTT assay; assay type: cell-based, human; conditions: for Toxicity toward cancer cells compared to that toward MIHA cells: IC50 of MIHA cells/IC50 of cancer cells; for Toxicity toward cancer cells compared to that toward NCM460 cells: IC50 of NCM460 cells/IC50 of cancer cells; for IC50: MTT assay, 72 h incubation
A2780cis = assay: In vitro cytotoxicity, MTT assay; assay type: cell-based, human; conditions: for Toxicity toward cancer cells compared to that toward MIHA cells / Toxicity toward cancer cells compared to that toward NCM460 cells / IC50: A2780cis; for Toxicity toward cancer cells compared to that toward MIHA cells: IC50 of MIHA cells/IC50 of cancer cells; for Toxicity toward cancer cells compared to that toward NCM460 cells: IC50 of NCM460 cells/IC50 of cancer cells; for IC50: MTT assay, 72 h incubation; for Resistance found in A2780cis: Determined by IC50 of A2780cis cells/IC50 of A2780 cells
NCM460 = assay: In vitro cytotoxicity, MTT assay; assay type: cell-based, human; conditions: 72 h incubation
CCD-19Lu = assay: In vitro cytotoxicity, MTT assay; assay type: cell-based; conditions: 72 h incubation
non-tumorigenic cells = assay: In vitro cytotoxicity, MTT assay, non-tumorigenic cells; assay type: cell-based; conditions: 72 h
HCT116 cells [1] = assay: Hydrolysis of the gold(III) complexes in live cells, UPLC-QTOF-MS; assay type: in vitro ADME, human; conditions: 2 μM, 24 h, UPLC-QTOF-MS of lysates
Experimental: Hydrolysis of the gold(III) complexes in live cells has been studied by ultra-performance liquid chromatography coupled quadrupole-time-of-flight mass spectrometry (UPLC-QTOF-MS). Colon cancer cells, HCT116, were treated with 1 and A1 (2 μM) for 24 h, harvested and lysed by acetonitrile-water solution mixture (3:1, v/v) prior to UPLC-QTOF-MS analysis. […] In view of the fact that the peak with retention time of 6.44 min in the total-ion chromatogram of cell lysates of HCT116 treated with 1 was absence in the total-ion chromatogram of 1 in acetonitrile solution, this peak should be owing to the metabolite of 1 formed in HCT116 cells.

A2780adr cells = assay: Cellular uptake by ICP-MS; assay type: cell-based, human; conditions: 2 μM, 37° C.
Excerpt: Based on the results of previous study on cellular uptake of nanostructures [Davis, M. E. et al. Nat. Rev. Drug Discov. 2008, 7, 771] and the strong dependence of the uptake mechanism of 1 on temperature, K^+ concentration and hypertonic condition (FIG. 3d), nanostructures of 1 likely entered live cells by clathrin-mediated endocytosis.
To rationalize the lower toxicity of NC1 toward MIHA cells, cellular uptake of NC1 by MIHA and cancer cells has been investigated by ICP-MS (FIGS. 3b and 4). The gold contents in A2780 and A2780adr cells were 2.6- and 2.0-fold higher than that in MIHA cells, respectively, after incubation with NC1 for 2 h. […] On the other hand, co-incubation of MIHA cells with 1 and DOX should not lead to significant changes in cellular uptake rate of DOX. […] For NC1, it was less toxic toward MIHA cells as reflected by the apparent “strong antagonism” (Table 3), which should be owing to the decrease of DOX cellular uptake by the encapsulation from the nanostructures of 1, rather than real antagonism from DOX and 1.

HCT116 xenografts = assay type: in vivo; conditions: 4 mg/kg intravenous, 24 days, n=8, p<0.01
Excerpt: FIGS. 8B and 8C show changes in tumor volume and body weight, respectively, in mice (n=8) after treatment with different doses of 1 or A1. The control group received an equal volume of PBS only. ** denotes p<0.01 vs. control.
Significant pulmonary hemorrhage in the alveoli and a thickening of alveolar walls were found. Also, apoptotic hepatocytes and swollen renal epithelial cells were found, leading to subsequent shrinkage of kidney tubules. […] The lower systemic toxicity of 1 can be explained by the lower accumulation of 1 in the organs of mice treated at its effective dosage, as compared to that of A1 and Au1a (FIG. 10).

[2] = Systemic toxicity in mice bearing HCT116 xenografts (body weight, histopathology, blood biochemistry); assay type: in vivo
Excerpt: FIGS. 9A-9H show blood biochemistry analysis of ALT, AST, GLB, BUN, CREA, UA, LDH and CK, respectively, in the mice (n=8) at 24 days post-treatment.

A2780adr = conditions: for Toxicity toward cancer cells compared to that toward MIHA cells / Toxicity toward cancer cells compared to that toward NCM460 cells / IC50: A2780adr; for Toxicity toward cancer cells compared to that toward MIHA cells: IC50 of MIHA cells/IC50 of cancer cells; for Toxicity toward cancer cells compared to that toward NCM460 cells: IC50 of NCM460 cells/IC50 of cancer cells; for IC50: MTT assay, 72 h incubation; for Resistance found in A2780adr: Determined by IC50 of A2780adr cells/IC50 of A2780 cells
MIHA = assay: In vitro cytotoxicity, MTT assay; conditions: MIHA; MTT assay, 72 h incubation
HCT116 cells [3] = assay: Induction of apoptosis, CellEvent Caspase-3/7 Green (microscopy and flow cytometry); assay type: cell-based, human; conditions: HCT116, 2 μM, fluorescence microscopy
HCT116 cells [4] = assay: Apoptosis by FITC-Annexin V staining, flow cytometry; assay type: cell-based, human; conditions: HCT116, 2 μM, 24 h
Excerpt: (§1) The selective induction of apoptosis of HCT116 cells over NCM460 cells by 1 was further studied using FITC-Annexin V staining. Phosphatidylserine residues, which are located on the cytoplasmic surface of the cell membrane in normal live cells, will be translocated to outer plasma membrane in apoptotic cells. […] The quantity of apoptotic cells stained by FITC-Annexin V after treatment with 1 and Au1a was investigated by flow cytometry.

NCM460 cells [5] = assay: as above; assay type: cell-based, human; conditions: NCM460, 2 μM, 24 h
Excerpt: as §1

HCT116 cells [6] = assay: Apoptosis in co-culture cell model of HCT116 and NCM460; assay type: cell-based, human; conditions: 2 μM, 24 h, Caspase-3/7 Green Reagent, flow cytometry
Experimental: (§2) In order to differentiate the two different cell lines, NCM460 cells were pre-treated by blue-emissive CMF2HC dye prior to its co-culture with HCT116 cells. […] On the other hand, the co-culture model treated with 1 for 24 h was stained by FITC-Annexin V and propidium iodide, and imaged by fluorescence microscopy. Green and red fluorescence were primarily observed in cells without showing blue luminescence, i.e. HCT16 cells. […] The results of both fluorescence microscopy and flow cytometry support the high selectivity of 1 on killing colon cancer cells in the co-culture model of cancer and normal cells.
(§3) This co-culture model treated with 1 for 24 h had 25.04 and 5.01% of HCT116 and NCM460 cells, respectively, undergoing apoptosis as determined by Caspase-3/7 Green Reagent staining and flow cytometric analysis. This confirms the preferential induction of apoptosis by 1 of HCT116 cells over NCM460 cells in the co-culture model, regardless of the effect, if any, of the blue emissive CMF2HC dye.

NCM460 cells [7] = assay: as above; assay type: cell-based, human; conditions: NCM460 in co-culture, 2 μM, 24 h, Caspase-3/7 Green Reagent, flow cytometry
Experimental: as §2, §3

[8] = acute toxicological study, Chem. Commun. 2011, 47, 9554; cited from earlier work
NCM460 cells [9] = assay: Induction of apoptosis, CellEvent Caspase-3/7 Green (microscopy and flow cytometry); conditions: NCM460, 2 μM, fluorescence microscopy

SMILES | Toxicity toward cancer cells compared to that toward MIHA cells (HeLa) | Toxicity toward cancer cells compared to that toward NCM460 cells (HeLa) | IC50 (HeLa) [nM] | Toxicity toward cancer cells compared to that toward MIHA cells (NCI-H460) | Toxicity toward cancer cells compared to that toward NCM460 cells (NCI-H460) | IC50 (NCI-H460) [nM] | IC50 (HCT116) [nM] | Toxicity toward cancer cells compared to that toward MIHA cells (HCT116) | Toxicity toward cancer cells compared to that toward NCM460 cells (HCT116) | Toxicity toward cancer cells compared to that toward MIHA cells (A2780) | Toxicity toward cancer cells compared to that toward NCM460 cells (A2780) | IC50 (A2780) [nM] | Toxicity toward cancer cells compared to that toward MIHA cells (A2780cis) | Toxicity toward cancer cells compared to that toward NCM460 cells (A2780cis) | IC50 (A2780cis) [nM] | Resistance found in A2780cis (A2780cis) | IC50 (NCM460) [nM] | IC50 (CCD-19Lu) [nM] | IC50 for non-tumorigenic cells (non-tumorigenic cells) | Incubation time after which amount in A2780adr cells decreases (A2780adr cells) [h] | also measured
COC(=O)c1ccc(-c2c3nc(c(-c4ccccc4)c4ccc([n-]4)c(-c4ccccc4)c4nc(c(-c5ccccc5)c5ccc2[n-]5)C=C4)C=C3)cc1.[Au+3].[Cl-] [A1] | 0.9 | 0.2 | 800 ± 100 | 7.0 | 1.3 | 100 ± 10 | 90 ± 10 | 7.7 | 1.4 | 3.5 | 0.7 | 200 ± 20 | 3.5 | 0.7 | 200 ± 30 | 1.0 | 130 ± 10 | 730 ± 40 | submicromolar range | 0.75 | Species formed by hydrolysis of ester bond in cells (HCT116 cells [1]): [Au(TPP—COOH)]^+; Reduction of tumor volume (HCT116 xenografts): 56%; Reduction of tumor weight (HCT116 xenografts): 49%; Blood biochemistry (organ damage indicators) ([2]; 4 mg/kg, for 1: ALT, GLB, BUN and CK, p<0.05): significant damage in the lung, liver and kidney; Histopathological analysis of lung, liver, kidney, heart and spleen ([2]; after treatment (A1: 4 mg/kg)): damage in normal lung, liver and kidney tissues; Toxicity toward cancer cells compared to that toward MIHA cells (A2780adr): 1.1; Toxicity toward cancer cells compared to that toward NCM460 cells (A2780adr): 0.2; IC50 (A2780adr): 650 ± 60 nM; Resistance found in A2780adr (A2780adr): 0.31; IC50 (MIHA): 700 ± 100 nM
C1=Cc2nc1c(-c1ccccc1)c1ccc([n-]1)c(-c1ccccc1)c1nc(c(-c3ccccc3)c3ccc([n-]3)c2-c2ccccc2)C=C1.[Au+3].[Cl-] [Au1a, [Au(TPP)]Cl, reference compound] | 0.6 | 0.1 | 660 ± 40 | 1.7 | 0.3 | 230 ± 10 | 90 ± 20 | 4.4 | 0.8 | 3.3 | 0.6 | 120 ± 20 | 3.5 | 0.4 | 180 ± 10 | 0.67 | 70 ± 10 | 230 ± 40 | submicromolar range | 0.5 | Incubation time to induction of apoptosis (HCT116 cells [3]): 12 h; Incubation time to significant apoptotic events / large population of apoptotic cells (HCT116 cells [3]): 32 h; Percentage of apoptotic cells (HCT116 cells [4]): 39.6%; Percentage of apoptotic cells (NCM460 cells [5]): 39.3%; Population percentage of apoptotic cells (corrected) (HCT116 cells [6]): 54.6%; Population percentage of apoptotic cells (corrected) (NCM460 cells [7]): 29.3%; Toxicity toward cancer cells compared to that toward MIHA cells (A2780adr): 0.4; Toxicity toward cancer cells compared to that toward NCM460 cells (A2780adr): 0.06; IC50 (A2780adr): 1100 ± 100 nM; Resistance found in A2780adr (A2780adr): 0.11; Effective dose to combat tumor growth relative to lethal dose [8]: close to the lethal dose; IC50 (MIHA): 400 ± 70 nM; Incubation time to induction of apoptosis (NCM460 cells [9]): 20 h; Incubation time to large number of apoptotic events (NCM460 cells [9]): 32 h
